In publication PMC4506051, “Pharmacokinetic Profiles of Active Ingredients and Its Metabolites Derived from Rikkunshito, a Ghrelin Enhancer, in Healthy Japanese Volunteers: A Cross-Over, Randomized Study” (PLoS ONE, 2015):
Where two headings read alike, the source gives them in different places.

Columns and labels:
[1] = Randomized crossover quantitative trial: plasma pharmacokinetics of nine ingredients after rikkunshito 2.5, 5.0 or 7.5 g; details: for AUC(0-t) / Cmax / Tmax / half-life: plasma, po; for AUC(0-t): AUC0-last; for Cmax: C max; for Tmax: Median t max (range)
Procedure, shortened: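 Healthy Japanese adults (20–45 y, BMI 18–25), fasted 12 h before and 4 h after dosing, received single oral rikkunshito 2.5, 5.0 or 7.5 g in a randomized open-label three-period crossover. Plasma sampled 0–48 h; ingredients quantified by LC–MS/MS or GC–MS.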

[2] = cited from earlier work
[3] = Method validation: stability in blood
[4] = Method validation: long-term stability in plasma
[5] = Method validation: short-term stability in plasma
[6] = Method validation: freeze-thaw stability in plasma
[7] = Method validation: post-preparative stability (autosampler)
[8] = Method validation: stability in standard, stock and working solution
[9] = Dose proportionality (linearity) test by power model for C max and AUC0-last; details: for Dose proportionality test using power model, Inference: linear when 90% CI of β included 1, CIlower ≥0.8, and CIupper ≤1.25; for Dose proportionality test using power model, β: rikkunshito 2.5, 5.0 or 7.5 g
Method: The dose proportionality was analyzed via a power model [21, 22]. […] Evaluation of linearity of the dosage-exposure relationship was conducted with Phoenix WinNonlin and SAS 9.2 (SAS Institute, Inc., Cary, NC).

[10] = human, 2.5 g, rikkunshito 2.5 g single oral, n = 21, geometric mean (95% CI)
[11] = human, 5 g, rikkunshito 5.0 g single oral, n = 19, geometric mean (95% CI)
[12] = human, 7.5 g, rikkunshito 7.5 g single oral, n = 19, geometric mean (95% CI)

**Q.** For O=C1C[C@@H](c2ccc(O)cc2)Oc2cc(O)cc(O)c21 [Naringenin], which AUC(0-t) [1, 10] is on record?
**A.** The AUC(0-t) was 1.65 ng·h/mL.

**Q.** And the Cmax [1, 10]?
**A.** The Cmax was 0.376 ng/mL.

**Q.** And the Tmax ([1]; human, 2.5 g, rikkunshito 2.5 g single oral, n = 21, median (minimum–maximum))?
**A.** Its Tmax is 5.83 h.

**Q.** What about the AUC(0-t) [1, 11] of the same molecule?
**A.** The AUC(0-t) was 3.32 ng·h/mL.

**Q.** And the Cmax [1, 11]?
**A.** Its Cmax is 0.878 ng/mL.

**Q.** And the Tmax ([1]; human, 5 g, rikkunshito 5.0 g single oral, n = 19, median (minimum–maximum))?
**A.** Its Tmax is 4 h.

**Q.** And the half-life ([1]; human, 5 g, t 1/2, rikkunshito 5.0 g single oral, n = 19, geometric mean (95% CI))?
**A.** Its half-life is 4.46 h.

**Q.** What about the AUC(0-t) [1, 12] of the same molecule?
**A.** Its AUC(0-t) is 4.63 ng·h/mL.

**Q.** What about the Cmax [1, 12] of the same molecule?
**A.** Its Cmax is 1.15 ng/mL.

**Q.** What about the Tmax ([1]; human, 7.5 g, rikkunshito 7.5 g single oral, n = 19, median (minimum–maximum)) of the same molecule?
**A.** The Tmax was > 3 h.

**Q.** And the half-life ([1]; human, 7.5 g, t 1/2, rikkunshito 7.5 g single oral, n = 19, geometric mean (95% CI))?
**A.** Its half-life is < 10 h.

**Q.** And the “t 1/2” value ([1]; rikkunshito 7.5 g single oral, n = 19, geometric mean (95% CI))?
**A.** The value was 5.38 (3.31–8.76) h.

**Q.** What about the “Median t max (range)” value ([1]; rikkunshito 7.5 g single oral, n = 19, median (minimum–maximum)) of the same molecule?
**A.** Its value is 4.00 (2.00–6.00) h.

**Q.** And the “Maximum plasma concentration in the preliminary pharmacokinetics study” value ([2]; 7.5 g dosage)?
**A.** Its value is 0.162 ± 0.0392 ng/mL.

**Q.** And the “Stability in blood, RR” value ([3]; on ice 2 h, higher concentration (800 / 320 / 4000 pg/mL))?
**A.** Its value is 98.1%.

**Q.** What about the “Stability in blood, RR” value ([3]; on ice 2 h, lower concentration (20 / 8 / 100 pg/mL)) of the same molecule?
**A.** The value was 95.8%.

**Q.** And the “Long-term stability, RR” value ([4]; naringenin 100 pg/mL, freezer −30°C to −10°C, 22 days)?
**A.** Its value is 101.9%.

**Q.** And the “Long-term stability, RR” value ([4]; naringenin 100 pg/mL, freezer, 31 days)?
**A.** Its value is 98.1%.

**Q.** And the “Long-term stability, RR” value ([4]; naringenin 100 pg/mL, freezer, 220 days)?
**A.** The value was 86.8%.

**Q.** And the “Long-term stability, RR” value ([4]; naringenin 4000 pg/mL, freezer, 22 days)?
**A.** Its value is 95.8%.

**Q.** And the “Long-term stability, RR” value ([4]; naringenin 4000 pg/mL, freezer, 31 days)?
**A.** Its value is 95.8%.

**Q.** What about the “Long-term stability, RR” value ([4]; naringenin 4000 pg/mL, freezer, 220 days) of the same molecule?
**A.** The value was 85.2%.

**Q.** What about the “Short-term stability, RR” value ([5]; naringenin 100 pg/mL, room temperature, 24 h as printed in the cell) of the same molecule?
**A.** The value was 113.8%.

**Q.** And the “Short-term stability, RR” value ([5]; naringenin 4000 pg/mL, room temperature, 24 h as printed in the cell)?
**A.** Its value is 112.2%.

**Q.** And the “Short-term stability, RR” value ([5]; room temperature (1°C to 30°C) 4 h, higher concentration (800 / 320 / 4000 pg/mL))?
**A.** The value was 92.8%.

**Q.** What about the “Short-term stability, RR” value ([5]; room temperature (1°C to 30°C) 4 h, lower concentration (20 / 8 / 100 pg/mL)) of the same molecule?
**A.** The value was 102.1%.

**Q.** What about the “Freeze-thaw stability, RR” value ([6]; −30°C to −10°C, 3 cycles, higher concentration (800 / 320 / 4000 pg/mL)) of the same molecule?
**A.** The value was 96.7%.

**Q.** What about the “Freeze-thaw stability, RR” value ([6]; −30°C to −10°C, 3 cycles, lower concentration (20 / 8 / 100 pg/mL)) of the same molecule?
**A.** The value was 90.6%.

**Q.** What about the “Post-preparative stability, RR” value ([7]; autosampler set at 4°C, 48 h, higher concentration (800 / 320 / 4000 pg/mL)) of the same molecule?
**A.** Its value is 87.1%.

**Q.** And the “Post-preparative stability, RR” value ([7]; autosampler set at 4°C, 48 h, lower concentration (20 / 8 / 100 pg/mL))?
**A.** The value was 85.6%.

**Q.** And the “Post-preparative stability, RR” value ([7]; naringenin 100 pg/mL, autosampler set at 4°C, 25 h as printed in the cell)?
**A.** The value was 91.7%.

**Q.** What about the “Post-preparative stability, RR” value ([7]; naringenin 4000 pg/mL, autosampler set at 4°C, 25 h as printed in the cell) of the same molecule?
**A.** The value was 96.7%.

**Q.** And the “Working solution stability, RR” value ([8]; refrigerator 128 days, higher concentration (10 / 4 / 50 ng/mL))?
**A.** The value was 99.8%.

**Q.** What about the “Working solution stability, RR” value ([8]; refrigerator 128 days, lower concentration (0.1 / 0.04 / 0.5 ng/mL)) of the same molecule?
**A.** The value was 102.6%.

**Q.** And the “Stock solution stability, RR” value ([8]; refrigerator (1°C to 8°C) 54 days, 0.1 mg/mL (naringenin 0.5 mg/mL))?
**A.** Its value is 54 days: 97.5%.

**Q.** What about the “Stock solution stability, RR” value ([8]; refrigerator (1°C to 8°C) 129 days, 0.1 mg/mL (naringenin 0.5 mg/mL)) of the same molecule?
**A.** Its value is 129 days: 96.7%.

**Q.** And the “Dose proportionality test using power model, Inference” value (from here on “Dose proportionality test … Inference”) ([9]; AUC0-last)?
**A.** Its value is “Nonlinear”.

**Q.** What about the “Dose proportionality test using power model, β” value (from here on “Dose proportionality test … β”) ([9]; AUC0-last) of the same molecule?
**A.** The value was 1.02.

**Q.** What about the “Dose proportionality test … Inference” value ([9]; Cmax) of the same molecule?
**A.** The value was “Nonlinear”.

**Q.** And the “Dose proportionality test … β” value ([9]; Cmax)?
**A.** Its value is 1.06.

**Q.** With COc1ccc(-c2cc(=O)c3c(OC)c(OC)c(OC)c(OC)c3o2)cc1OC [Nobiletin] as the molecule, how does the t max values ([1]; human, in vivo) read?
**A.** Its t max values is 15 min-1 h.

**Q.** And the “Maximum plasma concentration in the preliminary pharmacokinetics study” value ([2]; in vivo)?
**A.** The value was 0.0626 ± 0.0436 ng/mL.

**Q.** And the “Stability in blood, RR” value ([3]; 8 pg/mL, at room temperature for 2 h)?
**A.** The value was 86.3%.

**Q.** And the “Stability in blood, RR” value ([3]; 8 pg/mL, on ice for 2 h)?
**A.** Its value is 91.7%.

**Q.** And the “Stability in blood, RR” value ([3]; 320 pg/mL, at room temperature for 2 h)?
**A.** The value was 99.2%.

**Q.** And the “Stability in blood, RR” value ([3]; 320 pg/mL, on ice for 2 h)?
**A.** Its value is 91.3%.

**Q.** And the “Long-term stability, RR” value ([4]; 8 pg/mL, freezer (−30°C to −10°C) for 13 days)?
**A.** The value was 91.2%.

**Q.** What about the “Long-term stability, RR” value ([4]; 8 pg/mL, freezer (−30°C to −10°C) for 39 days) of the same molecule?
**A.** Its value is 88.0%.

**Q.** And the “Long-term stability, RR” value ([4]; 8 pg/mL, freezer (−30°C to −10°C) for 228 days)?
**A.** Its value is 89.9%.

**Q.** What about the “Long-term stability, RR” value ([4]; 320 pg/mL, freezer (−30°C to −10°C) for 13 days) of the same molecule?
**A.** The value was 114.0%.

**Q.** What about the “Long-term stability, RR” value ([4]; 320 pg/mL, freezer (−30°C to −10°C) for 39 days) of the same molecule?
**A.** Its value is 114.3%.

**Q.** What about the “Long-term stability, RR” value ([4]; 320 pg/mL, freezer (−30°C to −10°C) for 228 days) of the same molecule?
**A.** The value was 103.2%.

**Q.** What about the “Short-term stability, RR” value ([5]; 8 pg/mL, at room temperature for 4 h) of the same molecule?
**A.** The value was 106.5%.

**Q.** What about the “Short-term stability, RR” value ([5]; 8 pg/mL, at room temperature for 25 h) of the same molecule?
**A.** Its value is 114.3%.

**Q.** And the “Short-term stability, RR” value ([5]; 320 pg/mL, at room temperature for 4 h)?
**A.** The value was 109.7%.

**Q.** And the “Short-term stability, RR” value ([5]; 320 pg/mL, at room temperature for 25 h)?
**A.** The value was 92.5%.

**Q.** And the “Freeze-thaw stability, RR” value ([6]; 8 pg/mL, deep freezer (−30°C to −10°C), after 3 cycles of freeze-thaw)?
**A.** The value was 86.0%.

**Q.** And the “Freeze-thaw stability, RR” value ([6]; 320 pg/mL, deep freezer (−30°C to −10°C), after 3 cycles of freeze-thaw)?
**A.** Its value is 107.9%.

**Q.** And the “Post-preparative stability, RR” value ([7]; 8 pg/mL, autosampler set at 4°C for 24 h)?
**A.** Its value is 89.5%.

**Q.** And the “Post-preparative stability, RR” value ([7]; 8 pg/mL, autosampler set at 4°C for 48 h)?
**A.** Its value is 87.7%.

**Q.** And the “Post-preparative stability, RR” value ([7]; 320 pg/mL, autosampler set at 4°C for 24 h)?
**A.** The value was 88.0%.

**Q.** And the “Post-preparative stability, RR” value ([7]; 320 pg/mL, autosampler set at 4°C for 48 h)?
**A.** The value was 89.7%.

**Q.** And the “Working solution stability, RR” value ([8]; 0.04 ng/mL, refrigerator (1°C to 8°C) for 53 days)?
**A.** The value was 95.0%.

**Q.** And the “Working solution stability, RR” value ([8]; 0.04 ng/mL, refrigerator (1°C to 8°C) for 128 days)?
**A.** The value was 89.0%.

**Q.** And the “Working solution stability, RR” value ([8]; 4 ng/mL, refrigerator (1°C to 8°C) for 53 days)?
**A.** The value was 102.6%.

**Q.** And the “Working solution stability, RR” value ([8]; 4 ng/mL, refrigerator (1°C to 8°C) for 128 days)?
**A.** Its value is 109.6%.

**Q.** What about the “Stock solution stability, RR” value ([8]; 0.1 mg/mL, refrigerator (1°C to 8°C) for 54 days) of the same molecule?
**A.** The value was 54 days: 99.8%.

**Q.** And the “Stock solution stability, RR” value ([8]; 0.1 mg/mL, refrigerator (1°C to 8°C) for 129 days)?
**A.** Its value is 129 days: 89.1%.

**Q.** What about the “Dose proportionality test … Inference” value ([9]; AUC0-last) of the same molecule?
**A.** The value was “Nonlinear”.

**Q.** And the “Dose proportionality test … β” value ([9]; AUC0-last)?
**A.** Its value is 0.604.

**Q.** What about the “Dose proportionality test … Inference” value ([9]; Cmax) of the same molecule?
**A.** The value was “Nonlinear”.

**Q.** What about the “Dose proportionality test … β” value ([9]; Cmax) of the same molecule?
**A.** The value was 0.701.
